# From article PMC2606016 (The Journal of Biological Chemistry, 2008)
# Legend:
# HoNTT = molecular target: T1, HoNTT (Holospora obtusa, UniProt W6TTK3); conditions: 30 °C; labelled compound
# T1 sequence (W6TTK3 1-514): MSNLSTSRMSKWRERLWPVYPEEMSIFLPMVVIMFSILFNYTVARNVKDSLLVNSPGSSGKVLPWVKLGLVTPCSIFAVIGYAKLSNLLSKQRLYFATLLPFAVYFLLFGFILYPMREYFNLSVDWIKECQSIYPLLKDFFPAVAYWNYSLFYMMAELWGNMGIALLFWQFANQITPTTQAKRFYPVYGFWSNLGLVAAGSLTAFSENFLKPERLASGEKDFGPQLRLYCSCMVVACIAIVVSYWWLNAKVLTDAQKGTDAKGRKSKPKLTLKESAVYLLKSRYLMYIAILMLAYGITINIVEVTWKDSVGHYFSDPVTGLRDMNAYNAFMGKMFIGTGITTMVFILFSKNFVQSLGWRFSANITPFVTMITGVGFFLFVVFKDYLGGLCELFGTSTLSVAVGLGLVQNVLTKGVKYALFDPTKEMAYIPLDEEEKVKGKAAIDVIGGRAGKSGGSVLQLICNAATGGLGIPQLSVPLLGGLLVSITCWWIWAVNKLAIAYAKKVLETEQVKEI
# AtNTT1 = molecular target: T2, AtNTT1 (Arabidopsis thaliana, UniProt Q39002); conditions: 30 °C; labelled compound
# T2 sequence (Q39002 87-624): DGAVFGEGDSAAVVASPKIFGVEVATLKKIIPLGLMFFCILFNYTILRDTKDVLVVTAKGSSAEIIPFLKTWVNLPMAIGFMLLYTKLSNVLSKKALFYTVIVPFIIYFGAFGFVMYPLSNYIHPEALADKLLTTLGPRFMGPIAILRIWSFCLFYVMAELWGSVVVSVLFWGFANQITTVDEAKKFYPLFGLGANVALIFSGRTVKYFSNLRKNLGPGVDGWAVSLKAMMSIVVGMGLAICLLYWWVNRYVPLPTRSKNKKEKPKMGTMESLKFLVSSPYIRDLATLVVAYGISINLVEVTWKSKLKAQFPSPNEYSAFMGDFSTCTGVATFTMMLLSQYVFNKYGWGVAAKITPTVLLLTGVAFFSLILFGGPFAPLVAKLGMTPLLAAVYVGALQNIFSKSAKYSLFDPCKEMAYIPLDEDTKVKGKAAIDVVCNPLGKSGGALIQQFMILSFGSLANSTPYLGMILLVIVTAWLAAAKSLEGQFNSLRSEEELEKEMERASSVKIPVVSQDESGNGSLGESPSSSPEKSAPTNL
compound,measurement,setting,value
Nc1ncnc2c1ncn2[C@@H]1O[C@H](COP(=O)(O)OP(=O)(O)OP(=O)(O)O)[C@@H](O)[C@H]1O [ATP],uptake of labelled substrate into proteoliposomes,HoNTT,All recombinant carriers mediated ATP and ADP transport
same,uptake of labelled substrate into proteoliposomes,AtNTT1,All recombinant carriers mediated ATP and ADP transport
